Results on 3 compounds are retold here after patent publication US11452727B2, “Combination therapy for treating cancer” (Epizyme, Inc., priority 2017, dated 2022).

Common to all, as to test: In vitro combination study with tazemetostat, cell proliferation (Cell Titer Glo)
The test system of one assay is A427. The note with it: A427; 7 days tazemetostat pre-treatment, 6 days co-treatment with second agent.
The test system of another assay is A549. The following applies: 7 days tazemetostat pre-treatment, 6 days co-treatment with second agent.
Another assay concerns NCI-H1299. The note with it: 7 days tazemetostat pre-treatment, 6 days co-treatment with second agent.
The next assay deals with NCI-H1573. The note with it: 7 days tazemetostat pre-treatment, 6 days co-treatment with second agent.
In another assay the test system is NCI-H1703. The following applies: 7 days tazemetostat pre-treatment, 6 days co-treatment with second agent.
The next assay has as its system NCI-H1793. The following applies: 7 days tazemetostat pre-treatment, 6 days co-treatment with second agent.
The next assay relates to NCI-H1993. The following applies: 7 days tazemetostat pre-treatment, 6 days co-treatment with second agent.
Another assay concerns NCI-H2030. The following applies: 7 days tazemetostat pre-treatment, 6 days co-treatment with second agent.
The next assay concerns NCI-H2110. The following applies: 7 days tazemetostat pre-treatment, 6 days co-treatment with second agent.
In a further assay the test system is NCI-H2122. The following applies: 7 days tazemetostat pre-treatment, 6 days co-treatment with second agent.
The next assay has as its system NCI-H23. The following applies: 7 days tazemetostat pre-treatment, 6 days co-treatment with second agent.
The next assay has as its system NCI-H460. The following applies: 7 days tazemetostat pre-treatment, 6 days co-treatment with second agent.
The next assay concerns NCI-H522. The note with it: 7 days tazemetostat pre-treatment, 6 days co-treatment with second agent.
Another assay deals with NCI-H661. The following applies: 7 days tazemetostat pre-treatment, 6 days co-treatment with second agent.
For a further assay, the system named is NCI-H838. The following applies: 7 days tazemetostat pre-treatment, 6 days co-treatment with second agent.
A further assay concerns Calu-3. The note with it: 7 days tazemetostat pre-treatment, 6 days co-treatment with second agent.
For another assay, the system named is Calu-6. The following applies: 7 days tazemetostat pre-treatment, 6 days co-treatment with second agent.
The next assay deals with HCC827. The note with it: 7 days tazemetostat pre-treatment, 6 days co-treatment with second agent.

Procedure for A427: (§1) Initial proliferation studies were performed to determine the IC50 of tazemetostat in each cell line. For the screen, tazemetostat was used at concentrations bracketed around the IC50 value. If 50% inhibitory concentration was not reached then tazemetostat was tested starting at 10 μM.
(§2) In order to study the effect of dual combination of tazemetostat and a second agent on cell proliferation, cells in log-linear phase growth rate were pre-treated with various concentrations of tazemetostat or DMSO for 7 days in flasks, plated in 384-well plates in the absence of compounds and co-treated on day 8 with tazemetostat or DMSO and the second agent serially diluted for additional 6 days (as depicted in FIG. 1). On day 15, plates were developed for endpoint analysis using Cell Titer Glo to measure ATP content, which was used as an indicator of cell viability. DMSO concentration was kept constant throughout the assay at 0.15% v/v.
(§3) All cell lines were obtained from American Type Culture Collection (ATCC; Rockville, Md.). […] A427, Calu-3, Calu-6 cell lines were cultured in EMEM+10% Fetal bovine serum (FBS)+1% v/v Penicillin/Streptomycin (P/S).
Procedure for A549: as §1, §2
Procedure for Calu-6: as §1, §2
Procedure for HCC827: as §1, §2
(§4) NCI-H1573 was cultured in DMEM: F12 Medium containing the following components: 0.02 mg/ml insulin, 0.01 mg/ml transferrin, 25 nM sodium selenite, 50 nM Hydrocortisone, 1 ng/ml Epidermal Growth Factor, 0.01 mM ethanolamine, 0.01 mM phosphorylethanolamine, 100 pM triiodothyronine, 0.5% (w/v) bovine serum albumin, 0.5 mM sodium pyruvate, 4.5 mM L-glutamine and 1% v/v Pen/Strep.
Procedure for NCI-H1299: as §1, §2
Procedure for NCI-H1573: as §1, §2, §4
Procedure for NCI-H1703: as §1, §2
Procedure for NCI-H1793: as §1, §2, §4
Procedure for NCI-H1993: as §1, §2
Procedure for NCI-H2110: as §1, §2
Procedure for NCI-H2122: as §1, §2, §3
Procedure for NCI-H23: as §1, §2, §3
Procedure for NCI-H522: as §1, §2

On to `O=C(CCCCCCC(=O)Nc1ccccc1)NO` [Vorinostat, vorinostat], for which the “combinatorial effect with tazemetostat (Loewe volume class)” value (“combinatorial effect with tazemetostat” for short) is “Syn. (Loewe volumes greater than 1 denoted “synergy”)” in the assay on A427; “Add. (A value between −1 and 1 denoted “additivity”)” in the assay with A549; “Add. (A value between −1 and 1 denoted “additivity”)” in the assay on NCI-H1299; “Syn. (Loewe volumes greater than 1 denoted “synergy”)” with NCI-H1573; “Syn. (Loewe volumes greater than 1 denoted “synergy”)” in the assay on NCI-H1703; “Syn. (Loewe volumes greater than 1 denoted “synergy”)” in the assay on NCI-H1793. The “combinatorial effect with tazemetostat” value with NCI-H1993 was “Add. (A value between −1 and 1 denoted “additivity”)”; with NCI-H2030, “Syn. (Loewe volumes greater than 1 denoted “synergy”)”; in the assay with NCI-H2110 it was “Add. (A value between −1 and 1 denoted “additivity”)”; in the assay on NCI-H2122, “Add. (A value between −1 and 1 denoted “additivity”)”; in the assay on NCI-H23, “Syn. (Loewe volumes greater than 1 denoted “synergy”)”; with NCI-H460, “Syn. (Loewe volumes greater than 1 denoted “synergy”)”. Moreover, the “combinatorial effect with tazemetostat” value in the assay on NCI-H522 was “Syn. (Loewe volumes greater than 1 denoted “synergy”)”; with NCI-H661, “Add. (A value between −1 and 1 denoted “additivity”)”; in the assay with NCI-H838, “Add. (A value between −1 and 1 denoted “additivity”)”; in the assay on Calu-3 it was “Add. (A value between −1 and 1 denoted “additivity”)”; with Calu-6 it was “Syn. (Loewe volumes greater than 1 denoted “synergy”)”; in the assay with HCC827, “Add. (A value between −1 and 1 denoted “additivity”)”.

Regarding `C=CCn1c(=O)c2cnc(Nc3ccc(N4CCN(C)CC4)cc3)nc2n1-c1cccc(C(C)(C)O)n1` [MK-1775], the “combinatorial effect with tazemetostat” value in the assay on A427 is “Syn. (Loewe volumes greater than 1 denoted “synergy”)”; with A549 it was “Add. (A value between −1 and 1 denoted “additivity”)”; in the assay on NCI-H1299 it was “Add. (A value between −1 and 1 denoted “additivity”)”; with NCI-H1573 it was “Syn. (Loewe volumes greater than 1 denoted “synergy”)”; with NCI-H1703 it was “Syn. (Loewe volumes greater than 1 denoted “synergy”)”; in the assay on NCI-H1793, “Syn. (Loewe volumes greater than 1 denoted “synergy”)”. The “combinatorial effect with tazemetostat” value in the assay with NCI-H1993 is “Add. (A value between −1 and 1 denoted “additivity”)”; with NCI-H2030 it was “Syn. (Loewe volumes greater than 1 denoted “synergy”)”; with NCI-H2110, “Add. (A value between −1 and 1 denoted “additivity”)”; in the assay on NCI-H2122 it was “Add. (A value between −1 and 1 denoted “additivity”)”; with NCI-H23, “Syn. (Loewe volumes greater than 1 denoted “synergy”)”; in the assay with NCI-H460, “Add. (A value between −1 and 1 denoted “additivity”)”. For the same compound, the “combinatorial effect with tazemetostat” value in the assay on NCI-H522 was “Syn. (Loewe volumes greater than 1 denoted “synergy”)”; in the assay with NCI-H661 it was “Syn. (Loewe volumes greater than 1 denoted “synergy”)”; in the assay on NCI-H838, “Add. (A value between −1 and 1 denoted “additivity”)”; in the assay with Calu-3, “Add. (A value between −1 and 1 denoted “additivity”)”; in the assay with Calu-6, “Syn. (Loewe volumes greater than 1 denoted “synergy”)”; with HCC827, “Add. (A value between −1 and 1 denoted “additivity”)”.

Take `Cn1cnc2c(F)c(Nc3ccc(Br)cc3Cl)c(C(=O)NOCCO)cc21` [Selumetinib, selumetinib]: the “combinatorial effect with tazemetostat” value in the assay with A427 is “Syn. (Loewe volumes greater than 1 denoted “synergy”)”; with A549, “Add. (A value between −1 and 1 denoted “additivity”)”; in the assay with NCI-H1299 it was “Add. (A value between −1 and 1 denoted “additivity”)”; in the assay on NCI-H1573 it was “Syn. (Loewe volumes greater than 1 denoted “synergy”)”; with NCI-H1703, “Syn. (Loewe volumes greater than 1 denoted “synergy”)”; in the assay on NCI-H1793, “Syn. (Loewe volumes greater than 1 denoted “synergy”)”. In addition, the “combinatorial effect with tazemetostat” value in the assay on NCI-H1993 is “Syn. (Loewe volumes greater than 1 denoted “synergy”)”; with NCI-H2030, “Add. (A value between −1 and 1 denoted “additivity”)”; in the assay on NCI-H2110 it was “Syn. (Loewe volumes greater than 1 denoted “synergy”)”; in the assay on NCI-H2122, “Anta. (volumes <−1 denoted “antagonism”)”; in the assay on NCI-H23 it was “Add. (A value between −1 and 1 denoted “additivity”)”; in the assay with NCI-H460 it was “Anta. (volumes <−1 denoted “antagonism”)”. Besides, the “combinatorial effect with tazemetostat” value was “Syn. (Loewe volumes greater than 1 denoted “synergy”)” in the assay on NCI-H522; “Syn. (Loewe volumes greater than 1 denoted “synergy”)” in the assay on NCI-H661; “Syn. (Loewe volumes greater than 1 denoted “synergy”)” in the assay on NCI-H838; “Syn. (Loewe volumes greater than 1 denoted “synergy”)” in the assay with Calu-3; “Syn. (Loewe volumes greater than 1 denoted “synergy”)” in the assay with Calu-6; “Add. (A value between −1 and 1 denoted “additivity”)” in the assay with HCC827.
